Converted amounts (≈) assume the structure as drawn.
What was measured:
Format in all cases: functional
Hs-578T = assay: Anticancer activity against Homo sapiens (human) Hs 578T cells after 48 hr by SRB assay
NCI-H460 [1] = assay: Growth inhibition of Homo sapiens (human) NCI-H460 cells at 10 uM after 48 hr by SRB assay; conditions: NCI-H460, 48 h, read-out: GI
M14 = assay: Anticancer activity against Homo sapiens (human) M14 cells after 48 hr by SRB assay; conditions: M14, 48 h
Malme-3M = assay: Anticancer activity against Homo sapiens (human) MALME-3M cells after 48 hr by SRB assay
SK-MEL-2 = assay: Anticancer activity against Homo sapiens (human) SK-MEL-2 cells after 48 hr by SRB assay; conditions: SK-MEL-2, 48 h
TK-10 = assay: Anticancer activity against Homo sapiens (human) TK10 cells after 48 hr by SRB assay; conditions: TK-10, 48 h
Candida albicans = assay: Antimicrobial activity against Candida albicans DSM 70014 after 48 hr by two-fold serial broth dilution method; conditions: DSM 70014, 48 h
PC-3 = assay: Growth inhibition of Homo sapiens (human) PC3 cells at 10 uM after 48 hr by SRB assay; conditions: PC-3, 48 h, read-out: GI
CCRF-CEM = assay: Growth inhibition of Homo sapiens (human) CCRF-CEM cells at 10 uM after 48 hr by SRB assay; conditions: read-out: GI
K562 = assay: Anticancer activity against Homo sapiens (human) K562 cells after 48 hr by SRB assay; conditions: K562, 48 h
MOLT-4 = assay: Anticancer activity against Homo sapiens (human) MOLT4 cells after 48 hr by SRB assay; conditions: MOLT-4, 48 h
NCI/ADR-RES = assay: Anticancer activity against Homo sapiens (human) NCI/ADR-RES cells after 48 hr by SRB assay
786-0 = assay: Anticancer activity against Homo sapiens (human) 786-0 cells after 48 hr by SRB assay; conditions: 786-0, 48 h
Pseudomonas aeruginosa = assay: Antimicrobial activity against Pseudomonas aeruginosa ATCC 10145 after 48 hr by two-fold serial broth dilution method; conditions: ATCC 10145, 48 h
SW-620 = assay: Anticancer activity against Homo sapiens (human) SW620 cells after 48 hr by SRB assay; conditions: SW-620, 48 h
SK-OV-3 = assay: Anticancer activity against Homo sapiens (human) SKOV3 cells after 48 hr by SRB assay; conditions: SK-OV-3, 48 h
HCT-116 = assay: Anticancer activity against Homo sapiens (human) HCT116 cells after 48 hr by SRB assay; conditions: HCT-116, 48 h
NCI-H522 = assay: Anticancer activity against Homo sapiens (human) NCI-H522 cells after 48 hr by SRB assay; conditions: NCI-H522, 48 h
Escherichia coli = assay: Antimicrobial activity against Escherichia coli ATCC 11775 after 48 hr by two-fold serial broth dilution method; conditions: ATCC 11775, 48 h
RPMI-8226 = assay: Anticancer activity against Homo sapiens (human) RPMI8226 cells after 48 hr by SRB assay; conditions: RPMI-8226, 48 h
SNB-19 = assay: Anticancer activity against Homo sapiens (human) SNB19 cells after 48 hr by SRB assay; conditions: SNB-19, 48 h
UO-31 = assay: Growth inhibition of Homo sapiens (human) UO31 cells at 10 uM after 48 hr by SRB assay; conditions: UO-31, 48 h, read-out: GI
IGROV-1 = assay: Growth inhibition of Homo sapiens (human) IGROV1 cells at 10 uM after 48 hr by SRB assay; conditions: IGROV-1, 48 h, read-out: GI
MDA-MB-468 = assay: Growth inhibition of Homo sapiens (human) MDA-MB-468 cells at 10 uM after 48 hr by SRB assay; conditions: MDA-MB-468, 48 h, read-out: GI
MCF7 = assay: Growth inhibition of Homo sapiens (human) MCF7 cells at 10 uM after 48 hr by SRB assay; conditions: MCF7, 48 h, read-out: GI
NCI-H460 [2] = assay: Anticancer activity against Homo sapiens (human) NCI-H460 cells after 48 hr by SRB assay; conditions: NCI-H460, 48 h
HOP-92 = assay: Anticancer activity against Homo sapiens (human) HOP92 cells after 48 hr by SRB assay; conditions: HOP-92, 48 h
HL-60(TB) = assay: Growth inhibition of Homo sapiens (human) HL-60(TB) cells at 10 uM after 48 hr by SRB assay; conditions: HL-60, 48 h, read-out: GI
SF-539 = assay: Anticancer activity against Homo sapiens (human) SF539 cells after 48 hr by SRB assay; conditions: SF-539, 48 h
HT-29 = assay: Anticancer activity against Homo sapiens (human) HT-29 cells after 48 hr by SRB assay; conditions: HT-29, 48 h
SF-295 = assay: Anticancer activity against Homo sapiens (human) SF295 cells after 48 hr by SRB assay; conditions: SF-295, 48 h
LOX IMVI = assay: Anticancer activity against Homo sapiens (human) LOXIMVI cells after 48 hr by SRB assay
[3] = read-out: LC50 (the source's name)

COc1ccc(OC)c(/C=C/C(=O)N/N=C/c2ccccc2)c1
GI50 (Hs-578T): 9.07 µM
TGI (Hs-578T): > 100 µM
CC50 (Hs-578T; [3]): > 100 µM
inhibition of growth at 10 µM (NCI-H460 [1]): 86.5%
GI50 (M14): 2160 nM
LC50 (M14): > 100 µM
TGI (M14): 6.77 µM
GI50 (Malme-3M): 2120 nM
TGI (Malme-3M): > 100 µM
CC50 (Malme-3M; [3]): > 100 µM
GI50 (SK-MEL-2): 2980 nM
TGI (SK-MEL-2): 9.32 µM
CC50 (SK-MEL-2; [3]): > 100 µM
GI50 (TK-10): 16.6 µM
TGI (TK-10): > 100 µM
CC50 (TK-10; [3]): > 100 µM
MFC (Candida albicans): 100 µg/mL (≈ 322 µM)
MIC (Candida albicans): 100 µg/mL (≈ 322 µM)
inhibition of growth at 10 µM (PC-3): 36.5%
inhibition of growth at 10 µM (CCRF-CEM): 44.8%
GI50 (K562): 488 nM
TGI (K562): > 100 µM
CC50 (K562; [3]): > 100 µM
GI50 (MOLT-4): 4.45 µM
TGI (MOLT-4): > 100 µM
CC50 (MOLT-4; [3]): > 100 µM
GI50 (NCI/ADR-RES): 1460 nM
LC50 (NCI/ADR-RES): > 100 µM
TGI (NCI/ADR-RES): 4.29 µM
GI50 (786-0): 7 µM
TGI (786-0): 72.5 µM
CC50 (786-0; [3]): > 100 µM
MBC (Pseudomonas aeruginosa): 100 µg/mL (≈ 322 µM)
MIC (Pseudomonas aeruginosa): 50 µg/mL (≈ 161 µM)
GI50 (SW-620): 1500 nM
TGI (SW-620): 6.23 µM
CC50 (SW-620; [3]): > 100 µM
GI50 (SK-OV-3): 12 µM
LC50 (SK-OV-3): > 100 µM
TGI (SK-OV-3): > 100 µM
GI50 (HCT-116): 2640 nM
TGI (HCT-116): 10.2 µM
CC50 (HCT-116; [3]): 67.2 µM
GI50 (NCI-H522): 1570 nM
TGI (NCI-H522): 41.7 µM
CC50 (NCI-H522; [3]): > 100 µM
MBC (Escherichia coli): 50 µg/mL (≈ 161 µM)
MIC (Escherichia coli): 50 µg/mL (≈ 161 µM)
GI50 (RPMI-8226): 2990 nM
TGI (RPMI-8226): 9.96 µM
CC50 (RPMI-8226; [3]): > 100 µM
GI50 (SNB-19): 4.12 µM
TGI (SNB-19): > 100 µM
CC50 (SNB-19; [3]): > 100 µM
inhibition of growth at 10 µM (UO-31): 43.4%
inhibition of growth at 10 µM (IGROV-1): 61.5%
inhibition of growth at 10 µM (MDA-MB-468): 71.9%
inhibition of growth at 10 µM (MCF7): 82.7%
GI50 (NCI-H460 [2]): 2080 nM
TGI (NCI-H460 [2]): 5.62 µM
CC50 (NCI-H460 [2]; [3]): 28.3 µM
GI50 (HOP-92): 1560 nM
TGI (HOP-92): 13.3 µM
CC50 (HOP-92; [3]): > 100 µM
inhibition of growth at 10 µM (HL-60(TB)): 53.6%
GI50 (SF-539): 4.42 µM
TGI (SF-539): 25.1 µM
CC50 (SF-539; [3]): > 100 µM
GI50 (HT-29): 2100 nM
TGI (HT-29): > 100 µM
CC50 (HT-29; [3]): > 100 µM
GI50 (SF-295): 1000 nM
TGI (SF-295): 11.1 µM
CC50 (SF-295; [3]): > 100 µM
GI50 (LOX IMVI): 4.11 µM
TGI (LOX IMVI): > 100 µM
CC50 (LOX IMVI; [3]): > 100 µM
